Measured values from patent US4206207A, “Use of 4-carboxy-phthalato(1,2-diaminocyclohexane)-platinum (II) and alkali metal salts thereof with cyclophosphamide in alleviating L1210 murine leukemia” (priority 1978, dated 1980).

Experiments:
[1] = Renal Toxicity Screening Protocol, toxicity compared to NSC-119875; type: in vivo
[2] = tested on: adenocarcinoma of the stomach, pancreas, and large bowel; details: combined FU and radiation vs radiation alone; cited from earlier work
L1210 leukemia = type: in vivo, mice; details: hydroxyurea alone, at least 1000 mg/kg
Protocol: Compound Pt-307 was administered usually in a dosage regimen of 5-60 mg/kg of body weight. This was given as a single dose or on Days 1, 5, and 9 in the standard National Institutes of Health 10-day testing.
CY was utilized at an optimum 50 mg/kg of body weight (range 25-75 mg/kg) preferably given at Day 3 in the 10-day testing. 5-FU was utilized at 75 mg/kg of body weight (range 50-100 mg/kg) at Day 3. HU was used in a high dosage of at least 1000 mg/kg of body weight (range 1000-1500 mg/kg). The 5-FU and the HU were utilized as ternary compositions only with cyclophosphamide and the platinum compound.
Hydroxyurea is utilized in combination therapy at a high dosage of at least 1000 mg/kg of body weight (range 1000-1500 mg/kg).

NC1CCCCC1N.O=S(=O)([O-])[O-].[Pt+2] (stereo not shown) [NSC-250427]
Body Weight Loss score ([1]; relative to NSC-119875): 2
Clinical Chemistry - Blood Urea Nitrogen score ([1]; relative to NSC-119875): 1
Clinical Chemistry - Creatinine score ([1]; relative to NSC-119875): 1
Clinical Chemistry - Serum Glutamic Pyruvic Transaminase score ([1]; relative to NSC-119875): 5
Hematology - Hematocrit score ([1]; relative to NSC-119875): 3
Hematology - White Blood Cell score ([1]; relative to NSC-119875): 3
Histopathology - Gastrointestinal score ([1]; relative to NSC-119875): 1
Histopathology - Hematopoietic score ([1]; relative to NSC-119875): 4
Histopathology - Lymphatic score ([1]; relative to NSC-119875): 2
Histopathology - Renal score ([1]; relative to NSC-119875): 2
TOTAL SCORE ([1]; sum of the ten scores): 24

O=c1[nH]cc(F)c(=O)[nH]1 [5-FU, 5-fluorouracil]
mean survival times (in words) [2]: significantly increased

NC(=O)NO [hydroxyurea]
efficacy against L1210 (in words) (L1210 leukemia): only minimally effective
